Like-named read-outs stand apart in the source and are kept apart here.
How the values were obtained:
[1] = target: T1, human serotonin transporters (Homo sapiens, UniProt P31645); assay: Serotonin Transporter Binding Assay ([3H]-citalopram displacement, HEK-hSERT cell membranes)
T1 construct: expressed in transfected cells
Method: HEK-293 cells that stably express human serotonin transporters (HEK-hSERT cells) were grown at 37° C. in 5% CO2 as a monolayer in medium consisting of EMEM supplemented with 10% fetal bovine serum and G418 sulfate (500 μg/mL). To prepare membranes for radioligand binding experiments, cells were rinsed twice with phosphate-buffered saline (138 mM NaCl, 4.1 mM KCl, 5.1 mM Na2PO4, 1.5 mM […], 11.1 mM glucose, pH 7.4). Cells were transferred from plates to polypropylene tubes (16×100 mm), centrifuged at 1,200×g for 5 min and were frozen at −80° C. until assay. Following centrifugation, pellets were resuspended by homogenization in buffer consisting of 50 mM Tris (pH 7.7 at 25° C.), 120 mM NaCl and 5 mM KCl and then centrifuged at 32,000×g for 10 min. Following centrifugation, supernatants were discarded and pellets were resuspended in buffer consisting of 50 mM Tris (pH 7.4 at 25° C.), 150 mM NaCl and 5 mM KCl. Membrane homogenates (200 μl/plate) were incubated with 1 nM [^3H]-citalopram (specific activity=85 Ci/mMol) and increasing concentrations of test compounds for 1 hr at 25° C. in a total volume of 250 μl. The assay buffer consisted of 50 mM Tris (pH 7.4 at 25° C.), 120 mM NaCl and 5 mM KCl (pH 7.4 with conc. HCl). Plates were incubated for 1 hr at 25° C., then filtered through 0.5% PEI treated Whatman GF/B filters using a Brandel cell harvester. Filters were washed three times with 3 mL of ice-cold tris wash buffer. Non-specific binding was defined with 10 μM fluoxetine. Amount of radioligand bound in the presence and absence of competitor was analyzed by plotting (−)log drug concentration versus the amount of radioligand specifically bound. The midpoint of the displacement curve (IC50, nM), signifies the potency. Ki values were calculated using the method of Cheng and Prusoff (1973).

[2] = target: T2, human norepinephrine transporters (Homo sapiens, UniProt P23975); assay: Norepinephrine Transporter Binding Assay ([3H]-nisoxetine displacement, hNET cell membranes); conditions: 2.7 nM [3H]-nisoxetine, 1 hr at 4° C., read-out: NE Reuptake (binding Ki)
T2 construct: host or cells: MDCK cells (also 'HEK-hNET cells'), membrane homogenates
T2 sequence (P23975 whole entry): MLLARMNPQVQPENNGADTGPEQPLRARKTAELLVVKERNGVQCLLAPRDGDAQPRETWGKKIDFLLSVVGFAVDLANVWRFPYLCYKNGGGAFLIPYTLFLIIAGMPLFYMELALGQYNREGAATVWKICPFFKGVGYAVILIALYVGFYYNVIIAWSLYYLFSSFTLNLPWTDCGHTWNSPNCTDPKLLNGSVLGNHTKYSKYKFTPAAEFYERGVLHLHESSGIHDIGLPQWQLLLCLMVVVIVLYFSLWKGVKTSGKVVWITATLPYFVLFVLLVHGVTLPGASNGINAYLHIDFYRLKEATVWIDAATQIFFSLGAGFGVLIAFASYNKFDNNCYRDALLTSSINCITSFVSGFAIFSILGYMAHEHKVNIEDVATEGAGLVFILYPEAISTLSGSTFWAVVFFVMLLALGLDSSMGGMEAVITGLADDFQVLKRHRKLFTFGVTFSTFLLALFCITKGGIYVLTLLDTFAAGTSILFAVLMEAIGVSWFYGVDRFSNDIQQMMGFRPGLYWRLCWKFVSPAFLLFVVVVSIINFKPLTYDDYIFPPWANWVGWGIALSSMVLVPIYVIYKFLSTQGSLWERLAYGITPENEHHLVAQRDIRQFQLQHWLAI
Method: MDCK cells that stably express human norepinephrine transporters (HEK-hNET cells) were supplied by Receptor Biology, Inc. Pellets were resuspended by homogenization in buffer consisting of 50 mM Tris (pH 7.4 at 25° C.), 120 mM NaCl and 5 mM KCl. Membrane homogenates (200 μl/well, 8 ug protein) were incubated with 2.7 nM [^3H]-nisoxetine (specific activity=80 Ci/mMol) and increasing concentrations of test compounds for 1 hr at 4° C. in a total volume of 250 μl. The assay buffer consisted of 50 mM Tris (pH 7.4 at 25° C.), 120 mM NaCl and 5 mM KCl (pH 7.4 with conc. HCl). Plates were incubated for 1 hr at 4° C., then filtered through 0.5% PEI treated Whatman GF/B filters using a Brandel cell harvester. Filters were washed three times with 3 mL of ice-cold tris wash buffer. Non-specific binding was defined with 10 μM desipramine. Amount of radioligand bound in the presence and absence of competitor was analyzed by plotting (−)log drug concentration versus the amount of radioligand specifically bound. The midpoint of the displacement curve (IC50, nM), signifies the potency. Ki values were calculated using the method of Cheng and Prusoff (1973).

[3] = HEK-hSERT membranes, 1 nM [3H]-citalopram, 1 hr at 25° C., read-out: SERT (binding Ki)

T1 sequence (P31645 whole entry): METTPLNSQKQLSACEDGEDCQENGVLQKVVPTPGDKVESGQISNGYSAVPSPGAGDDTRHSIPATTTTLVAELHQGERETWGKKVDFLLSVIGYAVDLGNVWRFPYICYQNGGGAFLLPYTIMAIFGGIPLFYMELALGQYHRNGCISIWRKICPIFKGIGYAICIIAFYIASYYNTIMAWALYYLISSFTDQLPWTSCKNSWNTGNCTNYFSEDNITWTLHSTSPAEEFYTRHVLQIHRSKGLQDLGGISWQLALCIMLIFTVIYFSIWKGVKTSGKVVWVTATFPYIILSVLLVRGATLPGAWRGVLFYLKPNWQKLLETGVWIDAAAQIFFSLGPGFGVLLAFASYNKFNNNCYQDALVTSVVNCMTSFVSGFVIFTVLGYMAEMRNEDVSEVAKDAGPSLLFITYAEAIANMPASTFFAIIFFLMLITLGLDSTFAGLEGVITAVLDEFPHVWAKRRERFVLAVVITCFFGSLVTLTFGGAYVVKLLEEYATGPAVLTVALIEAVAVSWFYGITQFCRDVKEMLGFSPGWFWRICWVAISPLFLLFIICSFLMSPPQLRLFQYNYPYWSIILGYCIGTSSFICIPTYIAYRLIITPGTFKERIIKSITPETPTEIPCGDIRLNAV

SMILES | Ki [1] [nM] | Ki [2] [nM] | Ki [1, 3] [nM]
CNC1CCC(c2c[nH]c3ccc(C#N)cc23)C1 (stereo not shown) [Compound 1, 3-(3-Methylamino-cyclopentyl)-1H-indole-5-carbonitrile] | 1 to 10 | > 1000 | 
CCNC1CCC(c2c[nH]c3ccc(C#N)cc23)C1 (stereo not shown) [Compound 2, 3-(3-Ethylamino-cyclopentyl)-1H-indole-5-carbonitrile] | 1 to 10 | > 1000 | 
CN(C)C1CCC(c2c[nH]c3ccc(C#N)cc23)C1 (stereo not shown) [Compound 3, 3-(3-Dimethylamino-cyclopentyl)-1H-indole-5-carbonitrile] |  | > 1000 | < 1
CCN(C)C1CCC(c2c[nH]c3ccc(C#N)cc23)C1 (stereo not shown) [Compound 4, 3-[3-(Ethyl-methyl-amino)-cyclopentyl]-1H-indole-5-carbonitrile] |  | > 1000 | 1 to 10
CCN(CC)C1CCC(c2c[nH]c3ccc(C#N)cc23)C1 (stereo not shown) [Compound 5, 3-(3-Diethylamino-cyclopentyl)-1H-indole-5-carbonitrile] |  | > 1000 | 1 to 10
N#Cc1ccc2[nH]cc(C3CCC(N4CCCC4)C3)c2c1 (stereo not shown) [Compound 6, 3-(3-Pyrrolidin-1-yl-cyclopentyl)-1H-indole-5-carbonitrile] | 1 to 10 | > 1000 | 
N#Cc1ccc2[nH]cc(C3CCC(N4Cc5ccccc5C4)C3)c2c1 (stereo not shown) [Compound 7, 3-[3-(1,3-Dihydro-isoindol-2-yl)-cyclopentyl]-1H-indole-5-carbonitrile] |  | > 1000 | 1 to 10
N#Cc1ccc2[nH]cc(C3CCC(N4CCc5ccccc5C4)C3)c2c1 (stereo not shown) [Compound 8, 3-[3-(3,4-Dihydro-1H-isoquinolin-2-yl)-cyclopentyl]-1H-indole-5-carbonitrile] |  | 100 to 1000 | 1 to 10
N#Cc1ccc2[nH]cc(C3CCC(NCCc4ccccc4)C3)c2c1 (stereo not shown) [Compound 9, 3-(3-Phenethylamino-cyclopentyl)-1H-indole-5-carbonitrile] |  | 100 to 1000 | 1 to 10
CN(CCc1ccccc1)C1CCC(c2c[nH]c3ccc(C#N)cc23)C1 (stereo not shown) [Compound 10, 3-[3-(Methyl-phenethyl-amino)-cyclopentyl]-1H-indole-5-carbonitrile] |  | 100 to 1000 | 1 to 10
N#Cc1ccc2[nH]cc(C3CCC(N4CCOCC4)C3)c2c1 (stereo not shown) [Compound 11, 3-(3-Morpholin-4-yl-cyclopentyl)-1H-indole-5-carbonitrile] | < 1 | > 1000 | 
CN(Cc1ccccc1)C1CCC(c2c[nH]c3ccc(C#N)cc23)C1 (stereo not shown) [Compound 12, 3-[3-(Benzyl-methyl-amino)-cyclopentyl]-1H-indole-5-carbonitrile] |  | 100 to 1000 | 1 to 10
N#Cc1ccc2[nH]cc(C3CCC(NCc4ccccc4)C3)c2c1 (stereo not shown) [Compound 13, 3-(3-Benzylamino-cyclopentyl)-1H-indole-5-carbonitrile] |  | 100 to 1000 | 1 to 10
N#Cc1ccc2[nH]cc(C3CCC(N4CCCCC4)C3)c2c1 (stereo not shown) [Compound 14, 3-(3-Piperidin-1-yl-cyclopentyl)-1H-indole-5-carbonitrile] | < 1 | > 1000 | 
CCCN(CCC)C1CCC(c2c[nH]c3ccc(C#N)cc23)C1 (stereo not shown) [Compound 15, 3-(3-Dipropylamino-cyclopentyl)-1H-indole-5-carbonitrile] |  | > 1000 | 1 to 10
CCCNC1CCC(c2c[nH]c3ccc(C#N)cc23)C1 (stereo not shown) [Compound 16, 3-(3-Propylamino-cyclopentyl)-1H-indole-5-carbonitrile] | < 1 | > 1000 | 
CNC1CCC(c2cn(C)c3ccc(C#N)cc23)C1 (stereo not shown) [Compound 17, 1-Methyl-3-(3-methylamino-cyclopentyl)-1H-indole-5-carbonitrile] | 1 to 10 | > 1000 | 
CCNC1CCC(c2cn(C)c3ccc(C#N)cc23)C1 (stereo not shown) [Compound 18, 3-(3-Ethylamino-cyclopentyl)-1-methyl-1H-indole-5-carbonitrile] | < 1 | > 1000 | 
Cn1cc(C2CCC(NCc3ccccc3)C2)c2cc(C#N)ccc21 (stereo not shown) [Compound 19, 3-(3-Benzylamino-cyclopentyl)-1-methyl-1H-indole-5-carbonitrile] |  | 100 to 1000 | 1 to 10

SMILES | Ki [1] [nM] | Ki [2] [nM] | Ki [1, 3] [nM]
Cn1cc(C2CCC(NCCc3ccccc3)C2)c2cc(C#N)ccc21 (stereo not shown) [Compound 20, 1-Methyl-3-(3-phenethylamino-cyclopentyl)-1H-indole-5-carbonitrile] |  | 100 to 1000 | 1 to 10
CN(C)C1CCC(c2cn(C)c3ccc(C#N)cc23)C1 (stereo not shown) [Compound 21, 3-(3-Dimethylamino-cyclopentyl)-1-methyl-1H-indole-5-carbonitrile] | 1 to 10 | > 1000 | 
CCN(C)C1CCC(c2cn(C)c3ccc(C#N)cc23)C1 (stereo not shown) [Compound 22, 3-[3-(Ethyl-methyl-amino)-cyclopentyl]-1-methyl-1H-indole-5-carbonitrile] | 1 to 10 | > 1000 | 
CCN(CC)C1CCC(c2cn(C)c3ccc(C#N)cc23)C1 (stereo not shown) [Compound 23, 3-(3-Diethylamino-cyclopentyl)-1-methyl-1H-indole-5-carbonitrile] | < 1 | > 1000 | 
Cn1cc(C2CCC(N3CCCC3)C2)c2cc(C#N)ccc21 (stereo not shown) [Compound 24, 1-Methyl-3-(3-pyrrolidin-1-yl-cyclopentyl)-1H-indole-5-carbonitrile] | 1 to 10 | > 1000 | 
CN(C)C1CCC(c2c[nH]c3cccc(F)c23)C1 (stereo not shown) [Compound 37, 3-(4-Fluoro-1H-indol-3-yl)-cyclopentyl-dimethyl-amine] |  |  | 10 to 100
CN(C)C1CCC(c2c[nH]c3cccc(Br)c23)C1 (stereo not shown) [Compound 38, 3-(4-Bromo-1H-indol-3-yl)-cyclopentyl-dimethyl-amine] |  |  | 1 to 10
CN(C)C1CCC(c2c[nH]c3ccc(Cl)cc23)C1 (stereo not shown) [Compound 39, 3-(5-Chloro-1H-indol-3-yl)-cyclopentyl-dimethyl-amine] |  |  | 1 to 10
CN(C)C1CCC(c2c[nH]c3ccc(Br)cc23)C1 (stereo not shown) [Compound 40, 3-(5-Bromo-1H-indol-3-yl)-cyclopentyl-dimethyl-amine] |  |  | 1 to 10
CN(C)C1CCC(c2c[nH]c3ccc(I)cc23)C1 (stereo not shown) [Compound 41, 3-(5-Iodo-1H-indol-3-yl)-cyclopentyl-dimethyl-amine] |  |  | 10 to 100
CN(C)C1CCC(c2c[nH]c3cc(F)ccc23)C1 (stereo not shown) [Compound 42, 3-(6-Fluoro-1H-indol-3-yl)-cyclopentyl-dimethyl-amine] |  |  | 1 to 10
CN(C)C1CCC(c2c[nH]c3cc(Cl)ccc23)C1 (stereo not shown) [Compound 43, 3-(6-Chloro-1H-indol-3-yl)-cyclopentyl-dimethyl-amine] |  |  | 1 to 10
CN(C)C1CCC(c2c[nH]c3cc(Br)ccc23)C1 (stereo not shown) [Compound 44, 3-(6-Bromo-1H-indol-3-yl)-cyclopentyl-dimethyl-amine] |  |  | 1 to 10
CN(C)C1CCC(c2c[nH]c3c(F)cccc23)C1 (stereo not shown) [Compound 45, 3-(7-Fluoro-1H-indol-3-yl)-cyclopentyl-dimethyl-amine] |  |  | 1 to 10
CN(C)C1CCC(c2c[nH]c3c(Cl)cccc23)C1 (stereo not shown) [Compound 46, 3-(7-Chloro-1H-indol-3-yl)-cyclopentyl-dimethyl-amine] |  |  | < 1
CN(C)C1CCC(c2c[nH]c3c(Br)cccc23)C1 (stereo not shown) [Compound 47, 3-(7-Bromo-1H-indol-3-yl)-cyclopentyl-dimethyl-amine] |  |  | 1 to 10
N#Cc1ccc2[nH]cc([C@H]3CCC(N)C3)c2c1 (stereo partly drawn) [Compound 60, (1S)-3-(3-Amino-cyclopentyl)-1H-indole-05-carbonitrile] |  |  | 10 to 100
N#Cc1ccc2[nH]cc([C@H]3CCC(NC4CC[C@H](c5c[nH]c6ccc(C#N)cc56)C4)C3)c2c1 (stereo partly drawn) [Compound 61, (3S,3′S)-bis-(3-(5-cyano-1H-indol-3-yl)cyclopentyl)amine] |  |  | 1 to 10
